Reference: PMC6442119, “The antitumor activity of CYB-L10, a human topoisomerase IB catalytic inhibitor” (Journal of Enzyme Inhibition and Medicinal Chemistry, 2019)

Legend:
Experiment in all cases: MTT assay
[1] = tested on: DU-145; format: cell-based; conditions: Homo sapiens; Parental cell line DU-145, MTT, 72 h
[2] = tested on: RC0.1; conditions: Homo sapiens, 72 h, read-out: GI50 ± SD
[3] = tested on: MCF-7; format: cell-based; conditions: Homo sapiens, MCF7; Parental cell line MCF-7, MTT, 72 h

Compound `CC[C@@]1(O)C(=O)OCc2c1cc1n(c2=O)Cc2cc3ccccc3nc2-1` [CPT, Camptothecin, reference compound] has a GI50 [1] of 19 ± 9 nM and a GI50 [2] of 7.53 ± 1.88 µM.

`COc1cccc2c1C(=O)c1c(O)c3c(c(O)c1C2=O)C[C@@](O)(C(=O)CO)C[C@@H]3O[C@H]1C[C@H](N)[C@H](O)[C@H](C)O1` [DOX, doxorubicin, reference compound] was tested, and the GI50 [3] was 150 ± 3 nM.
